Laboratory results taken from PMC9883252 (iScience, 2023).

Columns and labels:
[1] = system: P. falciparum NF54 strain; test: Inhibition activity in the asexual blood stages; type: cell-based; conditions: Plasmodium falciparum, NF54, 72 h, read-out: Pf IC50 (mean)
[2] = system: P. falciparum gametocytes (NF54 and 3601E1); test: Activity against synchronous gametocytes; type: cell-based, Plasmodium falciparum; conditions: stage V

IC50 [1] [nM]	SMILES	killing of late stage gametocytes [2]
410	COc1ccc2cc1Oc1ccc(cc1)C[C@@H]1NCCc3cc(OC)c4c(c31)Oc1cc3c(cc1O4)CCN(C)[C@H]3C2 [trilobine]	
	COc1ccc(C[C@H](N)C(=O)N[C@H]2[C@@H](O)[C@H](n3cnc4c(N(C)C)ncnc43)O[C@@H]2CO)cc1 [Puromycin, puromycin]	does not reach complete killing
